According to ChEMBL document CHEMBL1138458, “Fructose-1,6-bisphosphatase inhibitors. 1. Purine phosphonic acids as novel AMP mimics” (J Med Chem, 2009):

Key:
[1] = biological target: T1, Fructose-1,6-bisphosphatase 1 (Homo sapiens, UniProt P09467); assay: Inhibition of human liver FBPase expressed in Escherichia coli by spectrophotometry
T1 sequence (P09467 whole entry): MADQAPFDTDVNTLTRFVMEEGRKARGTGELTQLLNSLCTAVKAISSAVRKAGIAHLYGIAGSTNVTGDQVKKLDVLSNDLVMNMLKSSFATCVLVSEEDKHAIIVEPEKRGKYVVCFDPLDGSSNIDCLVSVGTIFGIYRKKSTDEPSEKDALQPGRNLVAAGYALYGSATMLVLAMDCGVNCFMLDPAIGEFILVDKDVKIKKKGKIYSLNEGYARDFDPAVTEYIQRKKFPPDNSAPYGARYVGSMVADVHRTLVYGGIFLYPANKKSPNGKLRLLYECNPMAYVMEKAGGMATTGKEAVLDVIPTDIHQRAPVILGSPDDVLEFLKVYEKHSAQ

Hepatocyte = assay: Inhibition of glucose production in rat primary hepatocytes treated for 15 to 30 mins prior to gluconeogenic substrate dihydroxyacetone addition; type: functional, cell-based
[2] = biological target: T2, Fructose-1,6-bisphosphatase 1 (Rattus norvegicus, UniProt P19112); assay: Inhibition of rat liver FBPase
T2 sequence (P19112 whole entry): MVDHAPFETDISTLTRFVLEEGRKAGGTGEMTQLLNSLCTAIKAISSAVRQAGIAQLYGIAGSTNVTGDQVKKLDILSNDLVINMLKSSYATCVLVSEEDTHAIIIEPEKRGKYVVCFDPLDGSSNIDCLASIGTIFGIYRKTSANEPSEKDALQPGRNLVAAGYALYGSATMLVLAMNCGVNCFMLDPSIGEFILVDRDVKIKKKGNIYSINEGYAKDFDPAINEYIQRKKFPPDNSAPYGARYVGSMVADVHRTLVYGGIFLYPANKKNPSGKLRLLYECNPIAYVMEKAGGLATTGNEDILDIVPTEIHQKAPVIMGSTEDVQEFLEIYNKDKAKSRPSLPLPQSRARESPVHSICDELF

Structure (SMILES) | IC50 [1] | IC50 [2] | EC50 (Hepatocyte)
Nc1ncnc2c1nc(NCP(=O)(O)O)n2[C@@H]1O[C@H](CO)[C@@H](O)[C@H]1O | > 100 µM | – | –
Nc1ncnc2c1nc(CNCP(=O)(O)O)n2CCc1ccccc1 | > 500 µM | – | –
Nc1ncnc2c1nc(-c1ccc(P(=O)(O)O)o1)n2C1CCCC1 | – | > 20 µM | 24 µM
Nc1ncnc2c1nc(-c1ccc(P(=O)(OCCSSCCO)OCCSSCCO)o1)n2CCc1ccccc1 | – | – | > 500 µM
CC(Cc1nc2c(N)ncnc2n1CCc1ccccc1)[PH](=O)O (stereo not drawn) | > 1000 µM | – | –
Nc1ncnc2c1nc(NCCC(=O)O)n2[C@@H]1O[C@H](CO)[C@@H](O)[C@H]1O | > 100 µM | – | –
Nc1ncnc2c1nc(CCC(=O)O)n2[C@@H]1O[C@H](CO)[C@@H](O)[C@H]1O | > 100 µM | – | –
CC(C)(CO)Cn1c(-c2ccc(P(=O)(O)O)o2)nc2c(N)ncnc21 | – | > 20 µM | 50 µM
COc1ccc(COP(=O)(OCc2ccc(OC)c(C#N)c2)c2ccc(-c3nc4c(N)ncnc4n3CCc3ccccc3)o2)cc1C#N | – | – | > 100 µM
Nc1ncnc2c1nc(CCC[PH](=O)O)n2CCc1ccccc1 | > 1000 µM | – | –
CC(C)(C)Cn1c(Cn2ccnc2P(=O)(O)O)nc2c(N)ncnc21 | > 100 µM | – | –
Nc1ncnc2c1nc(S(=O)(=O)CCP(=O)(O)O)n2CCc1ccccc1 | > 1000 µM | – | –
Nc1ncnc2c1nc(NCC(=O)O)n2[C@@H]1O[C@H](CO)[C@@H](O)[C@H]1O | > 100 µM | – | –
CSc1nc(N)c2nc(-c3ccc(P(=O)(O)O)o3)n(CC(C)C)c2n1 | – | > 20 µM | > 25 µM
Nc1ncnc2c1nc(-c1ccc(P3(=O)OCCSSCCO3)o1)n2CCc1ccccc1 | – | – | 250 µM

The next lines start with results.

IC50 [1] | IC50 [2] | Structure (SMILES) | EC50 (Hepatocyte)
48 µM | – | Nc1ncnc2c1nc(-c1ccc(P(=O)(O)O)s1)n2CCc1ccccc1 | –
100 µM | – | Nc1ncnc2c1nc(NCCP(=O)(O)O)n2CCc1ccccc1 | –
35 µM | – | Nc1ncnc2c1nc(NCCP(=O)(O)O)n2Cc1ccc2ccccc2c1 | –
5 µM | – | CC(n1c(-c2ccc(P(=O)(O)O)o2)nc2c(N)ncnc21)C(C)(C)C (stereo not drawn) | –
100 µM | – | Nc1ncnc2c1nc(/C=C/CP(=O)(O)O)n2CCc1ccccc1 | –
1.5 µM | – | Nc1ncnc2c1nc(-c1ccc(P(=O)(O)O)o1)n2C1CC1 | –
70 µM | – | Nc1ncnc2c1nc(-c1ccc(P(=O)(O)O)o1)n2CC(c1ccccc1)c1ccccc1 | –
100 µM | – | Nc1ncnc2c1nc(C(=O)NCP(=O)(O)O)n2CCc1ccccc1 | –
23 µM | – | Nc1ncnc2c1nc(COCP(=O)(O)O)n2CCc1ccccc1 | –
> 10 µM | – | Cn1c(P(=O)(O)O)cnc1-c1nc2c(N)ncnc2n1CC(C)(C)C | –
40 µM | – | Nc1ncnc2c1nc(CCOP(=O)(O)O)n2CCc1ccccc1 | –
100 µM | – | Nc1ncnc2c1nc(CCCP(=O)(O)O)n2CCc1ccccc1 | –
50 µM | – | CNc1ncnc2c1nc(-c1ccc(P(=O)(O)O)o1)n2CCc1ccccc1 | –
50 µM | – | O=P(O)(O)c1ccc(-c2nc3c(Cl)ncnc3n2CCc2ccccc2)o1 | –
91 µM | – | Nc1ncnc2c1nc(NCCP(=O)(O)O)n2Cc1ccccc1 | –
